What was measured:
[1] = ABTS radical scavenging assay; conditions: mean ± SD (n = 3)
Experimental: (§1) S1.4. DPPH radical scavenging assay […]
S1.5. ABTS radical scavenging assay
The ABTS radical scavenging assay was used also to evaluate the antioxidant activity of compounds 1-11. The ABTS free radical cation (ABTS•+ )was manufactured by reacting ABTS stock solution (7 mM) with potassium persulphate

[2] = DPPH radical scavenging assay; conditions: mean ± SD (n = 3); NA: no activity
Experimental: S1.4. DPPH radical scavenging assay
The DPPH radical scavenging assay was used to evaluate the antioxidant activity of compounds 1-11. In a 96-well microplate, 100 µL of DPPH solution (200 µM in ethanol) was added to 100 µL sample in ethanol at graded concentrations ranging from 7 to 500 µM. The mixture was incubated in the dark at room temperature for 30 min. The absorbance of the reaction mixture was measured at 517 nm using a microplate reader. The DPPH scavenging activity was calculated by the following formula: DPPH scavenging activity (%) = (Acontrol- Asample)/Acontrol×100%, where Acontrol was the absorbance of ethanol control without samples, Asample was the absorbance of sample. Ascorbic acid was used as the positive control in the […]

α-amylase = α-amylase inhibitory activity; format: biochemical; conditions: for α-Amylase Inhibition at 0.1 mM: mean ± SD (n = 3), NA: no activity; for α-amylase inhibitory effects (in words): weaker than the positive control acarbose
Experimental: S1.3. Determination of α-amylase inhibitory activity
Phosphate buffer (20 mM, pH 6.9, containing 6 mM NaCl) was used as the […]
µL, 1%, w/v) were mixed and incubated in a 96-well microplate at37 °C for 10 min.
Then, α-amylase solution (50 µL, 0.2 U/mL) was added and the mixture was incubated at 37 °C for an additional 10 min. The reaction was stopped by addition of […]
microplate was immediately heated in 95 °C water bath for 10 min. When the reaction solution cooled to room temperature, allsamples were diluted by adding distilled water (50 µL), and then their absorbance was measured using a microplate reader at […]
starch solution) at 540 nm, thus the inhibitory activity was calculated as (Acontrol-Asample)/Acontrol×100%, in which Asample was the absorbance of the sample and Acontrol was the absorbance of the phosphate buffer control without test samples. Acarbose was used as the positive control.
as §1

α-Glucosidase from yeast = assay: α-glucosidase inhibitory activity; format: biochemical; conditions: for α-Glucosidase Inhibition at 0.1 mM: mean ± SD (n = 3), NA: no activity; for α-glucosidase inhibitory effects (in words): weaker than the positive control acarbose
Experimental: S1. Determination of bioactivities […]
S1.2. Determination of α-glucosidase inhibitory activity […]
diluted with phosphate buffer (0.1 M, pH 6.8). […]
and 4-nitrophenyl α-D-glucopyranoside (pNPG) solution (50 µL, 5 mM) were mixed and incubated in a 96-well microplate at 37 °C for 5 min. α-Glucosidase from yeast (50 µL, 0.2 U/mL) was added and incubated at 37 °C for another 30 min. Finally, 50 µL of Na2CO3 (1M) was added to terminate the reaction. The absorbance of mixture was measured using a microplate reader at a wavelength 405 nm. […]
following equation: α-glucosidase inhibition (%) = (Acontrol- Asample)/Acontrol×100%, where Acontrolrepresented the absorbance of phosphate buffer control without test samples, Asample represented the absorbance of test samples. Acarbose was used as the […]

FAS = target: T1, FAS (Gallus gallus, UniProt P12276); assay: FAS inhibitory activity; format: biochemical, chicken; conditions: mean ± SD (n = 3); NA: no activity
T1 construct: isolated from chicken liver; from tissue; host or cells: chicken liver
T1 sequence (P12276 2-2512 limits assumed): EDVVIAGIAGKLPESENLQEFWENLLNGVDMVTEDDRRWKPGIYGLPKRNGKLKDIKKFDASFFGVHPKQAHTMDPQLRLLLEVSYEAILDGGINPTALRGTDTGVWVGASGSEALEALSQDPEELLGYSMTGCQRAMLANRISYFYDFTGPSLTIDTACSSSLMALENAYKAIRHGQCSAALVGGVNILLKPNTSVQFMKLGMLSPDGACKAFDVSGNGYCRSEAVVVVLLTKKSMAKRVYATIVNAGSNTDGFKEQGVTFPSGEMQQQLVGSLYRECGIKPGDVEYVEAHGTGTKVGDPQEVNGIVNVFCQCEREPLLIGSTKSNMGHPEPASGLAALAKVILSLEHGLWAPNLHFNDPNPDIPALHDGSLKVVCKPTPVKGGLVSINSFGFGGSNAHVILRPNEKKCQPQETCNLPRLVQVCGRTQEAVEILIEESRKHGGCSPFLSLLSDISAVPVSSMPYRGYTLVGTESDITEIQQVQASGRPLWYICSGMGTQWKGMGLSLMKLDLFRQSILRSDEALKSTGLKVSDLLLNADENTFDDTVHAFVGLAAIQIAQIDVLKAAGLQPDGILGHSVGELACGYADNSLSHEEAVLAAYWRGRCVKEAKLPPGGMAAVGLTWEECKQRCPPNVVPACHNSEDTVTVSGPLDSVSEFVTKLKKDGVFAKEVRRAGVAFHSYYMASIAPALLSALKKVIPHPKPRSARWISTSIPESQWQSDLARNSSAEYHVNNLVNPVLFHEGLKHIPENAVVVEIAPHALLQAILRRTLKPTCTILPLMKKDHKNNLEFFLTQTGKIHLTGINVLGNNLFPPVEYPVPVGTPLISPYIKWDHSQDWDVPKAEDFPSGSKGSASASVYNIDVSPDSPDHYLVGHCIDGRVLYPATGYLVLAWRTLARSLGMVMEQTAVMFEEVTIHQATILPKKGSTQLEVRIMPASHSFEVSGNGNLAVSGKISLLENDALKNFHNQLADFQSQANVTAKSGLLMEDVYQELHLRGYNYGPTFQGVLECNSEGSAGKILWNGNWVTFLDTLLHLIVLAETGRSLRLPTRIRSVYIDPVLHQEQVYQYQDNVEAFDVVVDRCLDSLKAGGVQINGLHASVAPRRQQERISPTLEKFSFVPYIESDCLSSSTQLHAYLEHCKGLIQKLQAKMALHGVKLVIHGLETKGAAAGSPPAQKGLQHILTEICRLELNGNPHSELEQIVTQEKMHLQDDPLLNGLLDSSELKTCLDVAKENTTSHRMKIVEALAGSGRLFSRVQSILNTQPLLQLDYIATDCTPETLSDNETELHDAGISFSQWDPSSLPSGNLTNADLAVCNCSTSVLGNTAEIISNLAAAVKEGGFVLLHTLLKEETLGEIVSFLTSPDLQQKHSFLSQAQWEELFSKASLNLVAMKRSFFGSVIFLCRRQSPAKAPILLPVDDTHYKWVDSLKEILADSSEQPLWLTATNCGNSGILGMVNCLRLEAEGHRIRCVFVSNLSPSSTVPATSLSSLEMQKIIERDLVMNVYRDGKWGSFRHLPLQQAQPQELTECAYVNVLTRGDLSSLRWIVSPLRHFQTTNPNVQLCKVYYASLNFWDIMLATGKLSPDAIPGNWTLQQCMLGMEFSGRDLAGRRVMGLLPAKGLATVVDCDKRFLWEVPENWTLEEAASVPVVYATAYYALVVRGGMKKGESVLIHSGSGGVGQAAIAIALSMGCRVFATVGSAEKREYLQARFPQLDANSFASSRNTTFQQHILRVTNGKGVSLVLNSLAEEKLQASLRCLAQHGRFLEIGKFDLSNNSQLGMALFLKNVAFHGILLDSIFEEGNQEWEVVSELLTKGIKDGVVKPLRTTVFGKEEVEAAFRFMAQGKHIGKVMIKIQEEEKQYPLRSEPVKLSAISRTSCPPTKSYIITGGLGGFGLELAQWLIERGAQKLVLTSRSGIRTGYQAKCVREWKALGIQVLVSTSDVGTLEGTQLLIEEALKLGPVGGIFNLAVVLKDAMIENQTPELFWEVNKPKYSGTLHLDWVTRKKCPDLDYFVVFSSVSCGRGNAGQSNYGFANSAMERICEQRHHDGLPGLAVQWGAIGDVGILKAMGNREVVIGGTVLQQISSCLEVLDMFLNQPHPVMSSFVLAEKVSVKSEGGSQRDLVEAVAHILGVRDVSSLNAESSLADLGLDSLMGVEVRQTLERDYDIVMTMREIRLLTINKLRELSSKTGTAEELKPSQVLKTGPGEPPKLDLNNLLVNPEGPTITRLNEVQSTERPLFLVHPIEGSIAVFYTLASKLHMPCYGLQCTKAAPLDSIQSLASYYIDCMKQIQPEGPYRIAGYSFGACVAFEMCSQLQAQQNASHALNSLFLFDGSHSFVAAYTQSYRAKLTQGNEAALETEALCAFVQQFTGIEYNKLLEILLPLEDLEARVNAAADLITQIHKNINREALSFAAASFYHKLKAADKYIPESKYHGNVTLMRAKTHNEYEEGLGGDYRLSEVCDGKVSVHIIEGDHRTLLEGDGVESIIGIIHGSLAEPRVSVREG
Experimental: S1. Determination of bioactivities
S1.1. Determination of FAS inhibitory activity […]
diluted with potassium phosphate buffer (0.1 M, pH 7.0). Sample solution (100 µL, 20-2000 μM, 37 °C) and FAS substrates (1.8 mL, 37 °C) were mixed in a cuvette, and then FAS solution (100 µL, 37 °C, isolated from chicken liver and kept in ice-bath before use) was added. The absorbance of reaction mixture was monitored by a UV-vis spectrophotometer at340 nm in 1 min. The inhibitory effect was calculated by the following equation: FAS inhibition (%) = (Acontrol-Asample)/Acontrol× 100%, where Acontrolrepresented the FAS activity in the control group (phosphate buffer instead of sample solution), Asamplerepresented the FAS activity in the sample groups. The FAS activity was calculated as (A0 -A1)/1 min, in which A0 was the absorbance of the reaction mixture when the FAS was added, and A1 was the absorbance of the reaction mixture after reaction 1 min. Orlistat was used as the positive control.
FAS substrates: 0.1 M potassium phosphate buffer (pH 7.0), 1 mM ethylene-diaminetetraacetic acid (EDTA), 1 mM dithiothreitol, 3 µM acetyl-coenzyme A, 10 µM […], 35 µM NADPH. […]

SMILES | α-Glucosidase Inhibition at 0.1 mM (α-Glucosidase from yeast) | α-glucosidase inhibitory effects (in words) (α-Glucosidase from yeast) | IC50 [1] [µM] | IC50 [2] [µM] | α-Amylase Inhibition at 0.1 mM (α-amylase) | IC50 (FAS) [µM] | α-amylase inhibitory effects (in words) (α-amylase)
CC1OC(OC2C(C)OC(OC3C(O)C(OCC(O)c4ccc(O)c(O)c4)OC(CO)C3OC(=O)C=Cc3ccc(O)cc3)C(O)C2O)C(O)C(O)C1O (stereo not drawn) [Compound 2] |  |  | 10.6 ± 0.48 | 43.2 ± 1.06 | 10.6 ± 2.3 f % |  | 
CC1OC(OC2C(O)C(OCc3ccccc3)OC(CO)C2OC(=O)C=Cc2ccc(O)cc2)C(O)C(O)C1O (stereo not drawn) [Compound 4] |  |  |  |  |  | 6.49 ± 0.27 | 
C[C@@H]1O[C@@H](O[C@@H]2[C@@H](O)[C@@H](O)[C@H](O[C@@H]3[C@@H](O)[C@H](OCCc4ccc(O)cc4)O[C@H](CO)[C@H]3OC(=O)/C=C/c3ccc(O)cc3)O[C@H]2C)[C@H](O)[C@H](O)[C@H]1O [Compound 7, ligupurpuroside B] |  |  | 2.75 ± 0.09 | > 250 | 19.9 ± 1.8 d % |  | 
CC1OC(OC2C(C)OC(OC3C(O)C(OCCc4ccc(O)cc4)OC(CO)C3OC(=O)C=Cc3ccc(O)cc3)C(O)C2O)C(O)C(O)C1O (stereo not drawn) [Compound 8, cis-ligupurpuroside B] |  |  | 4.17 ± 0.06 | > 250 |  |  | 
C[C@@H]1O[C@@H](O[C@@H]2[C@@H](O)[C@@H](O)[C@H](O[C@@H]3[C@@H](O)[C@H](OCCc4ccc(O)cc4)O[C@H](CO)[C@H]3OC(=O)/C=C/c3ccc(O)c(O)c3)O[C@H]2C)[C@H](O)[C@H](O)[C@H]1O [Compound 9, ligurobustoside N] | 25.4 ± 4.1 d % |  | 2.68 ± 0.05 | 29.2 ± 0.37 | 15.9 ± 3.1 e % | 5.61 ± 0.44 | 
CC1OC(OC2C(O)C(OCCc3ccc(O)cc3)OC(CO)C2OC(=O)C=Cc2ccc(O)cc2)C(O)C(O)C1O (stereo not drawn) [Compound 10, osmanthuside D] | 19.3 ± 5.6 e % |  | 3.34 ± 0.02 | > 250 | 26.1 ± 1.9 c % |  | moderate
CC1OC(OC2C(O)C(COC(=O)C=Cc3ccc(O)cc3)OC(OCCc3ccc(O)cc3)C2O)C(O)C(O)C1O (stereo not drawn) [Compound 11, (Z)-osmanthuside B6] |  |  | 3.83 ± 0.05 | > 250 | 23.5 ± 1.7 c % | 4.55 ± 0.35 | moderate
O=C1O[C@H]([C@@H](O)CO)C(O)=C1O [L-(+)-ascorbic acid, reference compound] |  |  | 10.1 ± 0.19 | 13.66 ± 0.13 |  |  | 

Now from value to compound, other results behind:

α-Glucosidase Inhibition at 0.1 mM (α-Glucosidase from yeast) | α-glucosidase inhibitory effects (in words) (α-Glucosidase from yeast) | SMILES | IC50 [1] [µM] | IC50 [2] [µM] | α-Amylase Inhibition at 0.1 mM (α-amylase) | IC50 (FAS) [µM] | α-amylase inhibitory effects (in words) (α-amylase)
42.3 ± 8.7 bc % | moderate | C[C@@H]1O[C@@H](O[C@@H]2[C@@H](O)[C@@H](O)[C@H](O[C@@H]3[C@@H](O)[C@H](OCC(=O)c4ccc(O)c(O)c4)O[C@H](CO)[C@H]3OC(=O)/C=C/c3ccc(O)cc3)O[C@H]2C)[C@H](O)[C@H](O)[C@H]1O [Compound 3, 2-(3,4-dihydroxyphenyl)-2-oxoethyl 3-O-[α-L-rhamnopyranosyl-(1→4)-α-L-rhamnopyranosyl]-4-O-(trans-p-coumaroyl)-O-β-D-glucopyranoside] | 4.13 ± 0.06 | 23.8 ± 0.89 |  |  | 
45.1 ± 2.5 b % | moderate | C[C@@H]1O[C@@H](O[C@@H]2[C@@H](O)[C@H](OCc3ccccc3)O[C@H](COC(=O)/C=C/c3ccc(O)cc3)[C@H]2O)[C@H](O)[C@H](O)[C@H]1O [Compound 5, benzyl 3-O-(α-L-rhamnopyranosyl)-6-O-(trans-p-coumaroyl)-O-β-D-glucopyranoside] | 4.86 ± 0.06 | > 250 |  |  | 
36.5 ± 1.5 c % |  | C[C@@H]1O[C@@H](O[C@@H]2[C@@H](O)[C@H](OCc3ccccc3)O[C@H](COC(=O)/C=C\c3ccc(O)cc3)[C@H]2O)[C@H](O)[C@H](O)[C@H]1O [Compound 6, benzyl 3-O-(α-L-rhamnopyranosyl)-6-O-(cis-p-coumaroyl)-O-β-D-glucopyranoside] | 20.7 ± 0.22 |  |  |  | 

Source: PMC9657303, “Phenylethanoid and Phenylmethanoid Glycosides from the Leaves of Ligustrum robustum and Their Bioactivities” (Molecules, 2022)
